Data from US20050176672A1, “Use of cationic lipids to generate anti-tumor immunity” (Genzyme Corporation, priority 1999, published 2005).

How the values were obtained:
[1] = tested on: cytokine and cellular levels in the BALF; conditions: complexes formed between DOTMA and pDNA; Friemark et al. 1998; cited from earlier work
[2] = tested on: cytokines in BALF; assay: Cytokine levels in mouse BALF after intranasal instillation (ELISA); type: in vivo, BALB/c mice; conditions: component instilled alone; BALF 24 h
Excerpt: Cytokine levels in the mouse BALF were quantitated using enzyme-linked immunosorbent assay (ELISA) kits as specified by the manufacturers. IFN-γ, TNF-α, IL1-α, IL-1β, IL-10 and IL-6 ELISA kits were from Genzyme Corporation, while mKC, MIP-2 and GM-CSF ELISA kits were from R&D Systems, and the Leukotriene B4 ELISA kit was from Perseptive Diagnostics.
The cationic lipid:pDNA complexes were formed by mixing equal volumes of GL67:DOPE (1:2) with pDNA as described previously (Lee et al., Hum. Gene Ther. 7: 1701-1717, (1996)) to a final concentration of 0.6:1.2:3.6 mM (GL-67:DOPE:pDNA) or 0.3:0.6:1.8 mM, as indicated in the figure legends. The DNA concentration is expressed in terms of nucleotides, using an average nucleotide molecular weight of 330 daltons. BALB/c mice were instilled intranasally with 100 μl of complex as described. See Scheule et al., Hum. Gene Ther. 8: 689-707 (1997). The animals were euthanized and their lungs were lavaged 24 h post-instillation using phosphate-buffered saline (PBS). The recovered BALF were centrifuged at 1,500 rpm for 4 min, and the resulting supernatants were removed and frozen at −80° C. for subsequent cytokine analysis. […]
To determine whether methylation of pDNA affected the inflammatory response in the lungs, we measured the levels of several different cytokines in the BALF 24 h after instillation. […]

[3] = tested on: BALB/c mouse lungs; assay: Histopathological analysis of lung after intranasal instillation; type: in vivo, BALB/c mice; conditions: component alone; scale from 0 to 4; 2 days post-instillation
Excerpt: The histopathological changes within BALB/c mouse lungs following administration of either cationic lipid alone, pDNA alone, or cationic lipid:pDNA complexes were also examined. BALB/c mice were instilled intranasally with GL-67:(m)pCF1-CAT, GL67:pCF1-CAT, GL-67 alone, (m)pCF1-CAT, pCF1-CAT, or water (vehicle control). Mice were sacrificed 2 days post-instillation and the lungs were processed for histological examination in a blinded manner. Histopathology.
Lungs were fixed by inflation at 30 cm of H2O pressure with 2% paraformaldehyde and 0.2% glutaraldehyde. Representative samples were taken from each lung lobe, embedded in glycol methacrylate, sectioned and stained with hematoxylin and eosin. Histopathology on the lung was evaluated in a blinded fashion and graded subjectively using a scale of 0 to 4, where a score of 0 indicates no abnormal findings and a score of 4 reflects severe changes with intense infiltrates. See Scheule et al., Hum. Gene Ther. 8: 689-707 (1997).
The extent of lung inflammation was graded using a scale from 0 to 4, with 0 indicating no abnormalities, 1 indicating a minimal change, 2 a mild change, 3 a moderate change, and 4 representing severe changes from a normal lung (FIG. 4).

[4] = tested on: M3 melanoma cells; assay: M3 melanoma model; type: in vivo, mice; conditions: lipid alone, equivalent amount; treated days 5, 10, 14, 18
Experimental: On day 0, mice were inoculated intraperitoneally with M3 melanoma cells. Following the inoculation of M3 tumor cells, the mice were treated on days […], 14, and 18 with either the GL67:pNull complex, which is cationic lipid GL67 complexed to a null vector (a vector without an expressible insert), or were left untreated (control). All untreated control animals died by day 40, while greater than 85% of the animals treated with the GL 67:pNull complex were alive on day 68.
On day 68, the surviving animals were rechallenged subcutaneously with M3 tumor cells. A naive group of animals was also challenged with these same cells in parallel. All the animals in the naive group died by day 105, while approximately 40% of the animals that had been originally treated with the GL 67:pNull complex survived not only the initial intraperitoneal tumor cells but also the secondary subcutaneous challenge.
Following the intraperitoneal inoculation on day 0 of M3 tumor cells, groups of mice were treated on days 5, 10, 14, and 18 with either GL 67:pNull complexes (lipid:pNull), an equivalent amount of GL 67 (lipid alone), an equivalent amount of pNull DNA (pNull vector alone), or were untreated.

Row | Structure (SMILES) | cytokine and cellular levels in the BALF of treated animals [1] | levels of these four cytokine (TNF-α, IFN-γ, IL-6, KC) in BALF [2] | lung inflammation score [3] | mice surviving more than 50 days post tumor cell inoculation [4]
1 | CCCCCCCC/C=C\CCCCCCCCOCC(C[N+](C)(C)C)OCCCCCCCC/C=C\CCCCCCCC.[Cl-] (stereo not shown) [DOTMA, N-[1-(2-3-dioleyloxy)propyl]-N,N,N-trimethylammonium chloride] | enhanced | – | – | –
2 | CC(C)CCC[C@@H](C)[C@H]1CC[C@H]2[C@@H]3CC=C4C[C@@H](OC(=O)N(CCCN)CCCCNCCCN)CC[C@]4(C)[C@H]3CC[C@]12C [GL-67] | – | low levels | scored slightly lower than lungs that received lipid:pDNA complex | about 35%
